# Measured values as given in patent US4550186A, “Binuclear copper (II) carboxylates formed from amine-carboxyboranes” (Duke University, priority 1983, dated 1985).
# Legend:
# Acetyl CoA Carboxylase = target: T1, Acetyl CoA Carboxylase (Mus musculus, UniProt Q5SWU9); test: In vitro liver enzyme study: acetyl CoA carboxylase; format: biochemical; details: in vitro CF1 liver
# T1 construct: 10% homogenates of CF1 male mouse liver; from tissue; host or cells: CF1 male mouse liver, 10% homogenate
# Protocol: In vitro enzymatic studies were determined using 10% homogenates of CF1 male mouse liver with 50-200 μM of test drugs. In vivo enzymatic studies were determined using 10% homogenates of liver from CF1 male mice obtained after administering the agents for 16 days at a dose ranging from 2.5-20 mg/kg/day intraperitoneally. The liver homogenates for both in vitro and in vivo studies were prepared in 0.25M sucrose and 0.001M (ethylenedinitrilo)tetraacetic acid. Acetyl coenzyme A synthetase and adenosine triphosphate dependent citrate lyase activities were determined spectrophotometrically at 540 nm as the hydroxylamate of acetyl coenzyme A formed after 30 min at 37° C. Mitochondrial citrate exchange was determined by the procedure of Robinson et al [Eur. J. Biochem., 216, 63 (1970)] using ^14 C-sodium bicarbonate (41 mCi/mmol) incorporated into mitochondrial ^14 C-citrate after isolating rat mitochondria (9000 g×10 min) from the homogenates. The exchanges of the ^14 C-citrate were determined after incubating the mitochondrial fraction which was loaded with labeled citrate and test drugs for 10 min. Then the radioactivity was measured in the mitochondrial and supernantant fractions in scintillation fluid and expressed as a percentage. Cholesterol side chain oxidation was determined by the method of Kritchevsky and Tepper [Artherosclerosis, 18, 93 (1973)] using (26-^14 C) cholesterol (50 mCi/mmol) and mitochondria isolated from rat liver homogenates. […] Fatty acid synthetase activity was determined by the method of Brady et al [J. Biol. Chem., 235, 3093 (1960)] using [2-^14 C] malonyl-coenzyme A (37.5 mCi/mmol) which was incorporated into newly synthesized fatty acids that were extracted with ether and counted. Acyl transferase activity was determined with glycerol-3phosphate [L-2-^3 H(N)] […] HCl and counted. Phosphatidate phosphohydrolase activity was measured as the inorganic phosphate released after 30 min from phosphatidic acid by the method of Mavis et al [J. Lipid Res., 19, 467 (1978)]. […]
# CF1 male mice = test: Mouse liver lipid content; format: in vivo; details: 16 days
# Protocol: In CF1 male mice that had been administered test drugs for 16 days, the liver, small intestine and fecal materials (24 hr collection) were removed and a 10% homogenate in 0.25M sucrose+0.001M (ethylenedinitrilo)tetraacetic acid was prepared. An aliquot (2 ml) of the homogenate was extracted by the methods of Floch et al [J. Biol. Chem., 226, 497 (1957)] and Bligh and Dyer [Can. J. Biochem. Physiol., 37, 911 (1957)] and the number of mg of lipid weighed. The lipid was taken up in methylene chloride and the cholesterol level triglyceride levels, neutral lipid content and phospholipid content were determined.
# Data are expressed in the Table 2-7 as percent of control ± the standard deviation. The probable significant level (P) between each test group and the control group was determined by the Student's "t" test.
substance,measurement,setting,value
{Cu[(CH3)3 N.BH2 CO2 ]2.(CH3)3 N.BH2 COOH} [Compound I],Acetyl CoA Carboxylase,Acetyl CoA Carboxylase; 50 μM,96 ± 6 Percent Control
same,Acetyl CoA Carboxylase,Acetyl CoA Carboxylase; 100 μM,93 ± 5 Percent Control
same,Acetyl CoA Carboxylase,Acetyl CoA Carboxylase; 200 μM,92 ± 5 Percent Control
same,Cholesterol,CF1 male mice; 2.5 mg/kg,71 ± 6% of control
same,Mg of Lipid,CF1 male mice; 2.5 mg/kg,82 ± 5% of control
same,Neutral Lipids,CF1 male mice; 2.5 mg/kg,79 ± 5% of control
same,Phospholipids,CF1 male mice; 2.5 mg/kg,67 ± 6% of control
same,Protein,CF1 male mice; 2.5 mg/kg,105 ± 6% of control
same,Triglycerides,CF1 male mice; 2.5 mg/kg,40 ± 3% of control
same,Cholesterol,CF1 male mice; 5.0 mg/kg,74 ± 7% of control
same,Mg of Lipid,CF1 male mice; 5.0 mg/kg,85 ± 6% of control
same,Neutral Lipids,CF1 male mice; 5.0 mg/kg,86 ± 5% of control
same,Phospholipids,CF1 male mice; 5.0 mg/kg,92 ± 7% of control
same,Protein,CF1 male mice; 5.0 mg/kg,92 ± 5% of control
same,Triglycerides,CF1 male mice; 5.0 mg/kg,38 ± 4% of control
same,Cholesterol,CF1 male mice; 10.0 mg/kg,77 ± 7% of control
same,Mg of Lipid,CF1 male mice; 10.0 mg/kg,95 ± 6% of control
same,Neutral Lipids,CF1 male mice; 10.0 mg/kg,87 ± 4% of control
same,Phospholipids,CF1 male mice; 10.0 mg/kg,152 ± 8% of control
same,Protein,CF1 male mice; 10.0 mg/kg,101 ± 8% of control
same,Triglycerides,CF1 male mice; 10.0 mg/kg,36 ± 5% of control
